Experiments:
Assay type in all cases: functional
B16-F10 [1] = assay: Antitumor activity against mouse B16F10 cells xenografted in C57BL/6 mouse assessed as tumor volume at 50 mg/kg/day, po after 17 days
B16-F10 [2] = assay: Antitumor activity against mouse B16F10 cells xenografted in C57BL/6 mouse assessed as growth inhibition at 50 mg/kg/day, po after 14 days relative to control; details: B16-F10, 336 h, read-out: TGI
B16-F10 [3] = assay: Antitumor activity against mouse B16F10 cells xenografted in C57BL/6 mouse assessed as tumor volume at 50 mg/kg/day, po after 14 days

Cn1nnc2c(C(N)=O)ncn2c1=O [TEMOZOLOMIDE]
Activity (B16-F10 [1]): 2318 mm3 | inhibition in vivo at 50 mg/kg/day (B16-F10 [2]): 65% | Activity (B16-F10 [3]): 1198 mm3
